# Laboratory results taken from patent US10092534B2, “Composition for treating headaches” (BIOHIT OYJ, priority 2012, dated 2018).
# Assays:
# acetaldehyde from saliva = assay: Elimination of acetaldehyde from saliva during smoking by a cysteine lozenge (FIG. 3); format: in vivo, human; settings: lozenge containing 5 mg
# [1] = system: acetaldehyde in the saliva; assay: Salivary acetaldehyde during smoking while sucking L-cysteine tablets (gas chromatography of saliva samples); format: in vivo, human; settings: for average salivary acetaldehyde contents immediately after smoking: five smokers, one cigarette in 5 minutes, placebo 191.2±48.5 μM
# Protocol: Five smokers (of the age of 29±2.8) participated in a study, in which […] were smoked (with cleaning periods in between). While smoking each cigarette (in 5 minutes time), the voluntaries sucked tablets blindfold, containing a placebo, 1.25 mg, 2.5 mg, 5 mg, 10 mg or 20 mg of L-cysteine. The acetaldehyde in the saliva samples was analysed by gas chromatography after 0, 5, 10, 20 minutes from starting to smoke.
SMILES,elimination of acetaldehyde from saliva during smoking (acetaldehyde from saliva),average salivary acetaldehyde contents immediately after smoking ([1]; 5 mg L-cysteine sucking tablet),inactivation of acetaldehyde in the saliva during smoking ([1]; 5 mg of L-cysteine delivered with a melting tablet),average salivary acetaldehyde contents immediately after smoking ([1]; 10 mg L-cysteine sucking tablet),average salivary acetaldehyde contents immediately after smoking ([1]; 20 mg L-cysteine sucking tablet),"reduction of the amount of acetaldehyde compared with the placebo ([1]; L-cysteine tablet of 1.25 mg, saliva, during smoking)","removal of acetaldehyde originating from tobacco from the saliva ([1]; L-cysteine tablets 5 mg, 10 and 20 mg, during smoking, FIG. 1)"
N[C@H](CS)C(=O)O [D-cysteine],totally eliminates acetaldehyde,–,–,–,–,–,–
N[C@@H](CS)C(=O)O [L-cysteine],totally eliminates acetaldehyde,0 µM,completely inactivated,0 µM,0 µM,about two thirds,removed from the saliva all of the acetaldehyde
